Results taken from US11021486B2, “Coumarin-like cyclic compound as MEK inhibitor and use thereof” (CSTONE PHARMACEUTICALS, priority 2017, dated 2021).
Where two headings read alike, the source gives them in different places.

Columns and labels:
HT29 cells = assay: Cell viability experiment (Cell Titer-Glo), HT29; type: cell-based, human
Procedure: (§1) Biological Test Method 2: Cell Viability Experiment
(§2) HT29 and A375 cells were plated in a 96-well cell culture plate at a density of 40,000 cells/well and 20,000 cells/well respectively, and the cells were cultured overnight. The compounds were serially diluted in a gradient of 1:3, the dilutions were added to the cell culture medium, and incubated with the cells in a 37° C. incubator for 3 days. The 96-well cell culture plate was taken from the incubator and equilibrated at room temperature for 30 minutes, then Cell Titer-Glo reagent (Promega Cat #G7573) was added at a ratio of 1:2, and the mixture was mixed thoroughly on a shaker for 2 minutes to promote cell lysis. The cell culture plate was incubated at room temperature for 10 minutes and then read on an Envision microplate reader (PerkinElmer). XLfit5 software was used for data analysis and mapping.

A375 cells = assay: Cell viability experiment (Cell Titer-Glo), A375; type: cell-based
Procedure: as §1, §2

activated MEK1 = biological target: T1, activated MEK1 (Homo sapiens, UniProt Q02750); assay: MEK Lance Ultra experiment; type: biochemical; conditions: 0.07 nM activated MEK1, 2 nM non-activated ERK, 50 μM ATP; read-out: MEK potency IC50
T1 construct: purchased Millipore 14-429
T1 sequence (Q02750 whole entry): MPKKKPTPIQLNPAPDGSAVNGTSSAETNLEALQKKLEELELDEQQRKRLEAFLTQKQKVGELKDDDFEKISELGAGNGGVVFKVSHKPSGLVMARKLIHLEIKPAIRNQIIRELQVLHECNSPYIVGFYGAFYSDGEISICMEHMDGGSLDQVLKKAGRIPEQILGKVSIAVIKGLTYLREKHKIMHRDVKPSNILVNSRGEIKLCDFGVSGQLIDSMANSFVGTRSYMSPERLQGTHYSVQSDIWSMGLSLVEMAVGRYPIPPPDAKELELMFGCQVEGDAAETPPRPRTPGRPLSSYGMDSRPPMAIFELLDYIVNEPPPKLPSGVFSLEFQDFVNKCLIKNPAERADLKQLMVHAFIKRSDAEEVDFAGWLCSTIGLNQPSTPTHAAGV
Procedure: Biological Test Method 1: MEK Lance Ultra Experiment Compounds were serially diluted three-fold to 10 concentrations, two duplicates were set. Final test concentrations of the compounds ranged from 10 μM to 0.51 nM. 0.07 nM activated MEK1 (Millipore #14-429) and 2 nM non-activated ERK (Millipore #14-515) were mixed with the compounds or DMSO, the mixture was incubated at 23° C. for 30 minutes. Then 50 nM ULight labeled MBP (PerkinElmer #TRF0109-M) and 50 μM ATP (Invitrogen #PV3227) were added to initiate the reaction, and the mixture was incubated at 23° C. for 90 minutes. After the reaction was stopped by adding EDTA at a final concentration of 15 mM, 2 nM Eu-labeled anti-phosphorylated antibody (PerkinElmer #TRF0201-M) was added and incubated for 1 hour. The fluorescence signal data (excitation band: 320 nm; emission band: 665 nM/615 nM) was determined by an Envision microplate reader (PerkinElmer). XLfit5 software was used for data analysis and mapping.

[1] = Homo sapiens, HT-29, 72 h, HT29 cells, 3 days incubation, read-out: HT29 IC50
[2] = Homo sapiens, A-375, 72 h, A375 cells, 3 days incubation, read-out: A375 IC50
[3] = Homo sapiens, HT-29, 72 h, read-out: HT29 IC50, HT29 cells, 3 days incubation
[4] = Homo sapiens, A-375, 72 h, read-out: A375 IC50, A375 cells, 3 days incubation
[5] = HT29 cells, 3 days incubation, read-out: HT29 IC50
[6] = A375 cells, 3 days incubation, read-out: A375 IC50
[7] = read-out: HT29 IC50, HT29 cells, 3 days incubation
[8] = read-out: A375 IC50, A375 cells, 3 days incubation

SMILES | IC50 (HT29 cells; [1]) [nM] | IC50 (A375 cells; [2]) [nM] | IC50 (activated MEK1) [nM] | also measured
Cc1c(Nc2ccc(I)cc2F)c2c(=O)n(C3CC3)c(C)c(-c3cccc(N[S+]([O-])C(C)(C)C)c3)c2oc1=O (stereo not drawn) [WX091] | 35.6 | 10.1 | 128 | –
COCCn1c(C)c(-c2cccc(NC(C)=O)c2)c2oc(=O)c(C)c(Nc3ccc(I)cc3F)c2c1=O [WX061] | 446 | 442 | 57.5 | –
Cc1c(CS(=O)(=O)C2CC2)cccc1-c1c(C)n(C2CC2)c(=O)c2c(Nc3ccc(I)cc3F)c(C)c(=O)oc12 [WX108] | – | – | 29.6 | IC50 (HT29 cells; [3]): 13.1 nM; IC50 (A375 cells; [4]): 2.3 nM
CC(=O)Nc1cccc(Cc2c(C)n(C3CC3)c(=O)c3c(Nc4ccc(I)cc4F)c(C)c(=O)oc23)c1 [WX102] | 2.05 | 0.37 | 12.3 | –
Cc1c(Nc2ccc(I)cc2F)c2c(=O)n(C3CC3)c(C)c(-c3ccnc(N)c3)c2oc1=O [WX079] | 5.52 | 3.23 | 35.3 | –
CC(=O)Nc1cccc(-c2c(C)n(C)c(=O)c3c(Nc4ccc(I)cc4F)c(C)c(=O)oc23)c1 [WX040] | 64.1 | 69.7 | 581 | –
CC(=O)Nc1cccc(-c2c(C)n(C3CCOCC3)c(=O)c3c(Nc4ccc(I)cc4F)c(C)c(=O)oc23)c1 [WX059] | 923 | 1650 | 32.4 | –
Cc1c(Nc2ccc(I)cc2F)c2c(=O)n(C3CC3)c(C)c(-c3cccc(NC(=O)N4CCOCC4)c3)c2oc1=O [WX085] | 9.34 | 4.65 | 118 | –
Cc1c(Nc2ccc(I)cc2F)c2c(=O)n(C3CC3)c(C)c(-c3cccc(CN(C)C)c3)c2oc1=O [WX098] | 90.3 | 11.9 | 28.5 | –
CC(=O)Nc1cccc(-c2c(C)[nH]c(=O)c3c(Nc4ccc(I)cc4F)c(C)c(=O)oc23)c1 [WX049] | 7.4 | 3.08 | 67 | –
Cc1c(Nc2ccc(I)cc2F)c2c(=O)n(C3CC3)c(C)c(-c3cccc(NC(=O)NC(C)(C)C)c3)c2oc1=O [WX104] | 28.1 | 10.4 | 119 | –
Cc1c(Nc2ccc(I)cc2F)c2c(=O)n(C3CC3)c(C)cc2oc1=O [WX035] | 98.8 | 32.9 | 111 | –
Cc1c(Nc2ccc(I)cc2F)c2c(=O)n(C3CC3)c(C)c(-c3cccc(NS(C)(=O)=O)c3Cl)c2oc1=O (single isomer, unassigned) [WX116] | – | – | 34.5 | IC50 (HT29 cells; [7]): 0.82 nM; IC50 (A375 cells; [8]): 0.39 nM
Cc1c(Nc2ccc(I)cc2F)c2c(=O)n(C3CC3)c(C)c(-c3cccc(NS(C)(=O)=O)c3Cl)c2oc1=O (single isomer, unassigned) [WX117] | – | – | 424 | IC50 (HT29 cells; [7]): 18.7 nM; IC50 (A375 cells; [8]): 7.18 nM
CC(=O)Nc1cccc(-c2c(C)n(CCN(C)S(C)(=O)=O)c(=O)c3c(Nc4ccc(I)cc4F)c(C)c(=O)oc23)c1 [WX055] | 978 | 643 | 71.1 | –
Cc1[nH]c(=O)c2c(Nc3ccc(I)cc3F)c(C)c(=O)oc2c1-c1cccc(NS(C)(=O)=O)c1C (single isomer, unassigned) [WX118] | – | – | 32.7 | IC50 (HT29 cells; [5]): 1.76 nM; IC50 (A375 cells; [6]): 0.41 nM
Cc1c(Nc2ccc(I)cc2F)c2c(=O)n(C3CC3)c(C)c(-c3cccc(NC(=O)C4COC4)c3)c2oc1=O [WX065] | 7.38 | 4.31 | 36.2 | –
Cc1c(CS(C)(=O)=O)cccc1-c1c(C)n(C2CC2)c(=O)c2c(Nc3ccc(I)cc3F)c(C)c(=O)oc12 [WX106] | – | – | 29.9 | IC50 (HT29 cells; [3]): 5.89 nM; IC50 (A375 cells; [4]): 2.32 nM

More lines, in order of falling IC50 (activated MEK1), values ahead:

IC50 (HT29 cells; [1]) [nM] | IC50 (A375 cells; [2]) [nM] | IC50 (activated MEK1) [nM] | SMILES | also measured
101 | 52.6 | 581 | CC(=O)Nc1ccc(F)c(-c2c(C)n(C3CC3)c(=O)c3c(Nc4ccc(I)cc4F)c(C)c(=O)oc23)c1 [WX048] | –
16.2 | 8.19 | 282 | Cc1c(Nc2ccc(I)cc2F)c2c(=O)n(C3CC3)c(C)c(-c3ccnc(NS(C)(=O)=O)c3)c2oc1=O [WX105] | –
75.3 | 25.1 | 199 | Cc1c(Nc2ccc(I)cc2F)c2c(=O)n(C3CC3)c(C)c(-c3cccc(N(S(C)(=O)=O)S(C)(=O)=O)c3)c2oc1=O [WX067] | –
8.96 | 7.54 | 178 | Cc1c(Nc2ccc(I)cc2F)c2c(=O)n(C3CC3)c(C)c(-c3cccc(CNS(N)(=O)=O)c3)c2oc1=O [WX092] | –
– | – | 176 | Cc1c(Nc2ccc(I)cc2F)c2c(=O)n(C3CC3)c(C)c(-c3cccc(C[S+](C)[O-])c3)c2oc1=O (single isomer, unassigned) [WX084] | IC50 (HT29 cells; [5]): 17.4 nM; IC50 (A375 cells; [6]): 6.18 nM
23.7 | 9.42 | 152 | COCCNc1cccc(-c2c(C)n(C3CC3)c(=O)c3c(Nc4ccc(I)cc4F)c(C)c(=O)oc23)c1 [WX087] | –
10.5 | 8.62 | 146 | Cc1c(Nc2ccc(I)cc2F)c2c(=O)n(C3CC3)c(C)c(-c3cccc(C[S+](C)[O-])c3)c2oc1=O (single isomer, unassigned) [WX083] | –
90.7 | 29.2 | 119 | Cc1c(CS(C)(=O)=O)cccc1-c1c(C)n(C)c(=O)c2c(Nc3ccc(I)cc3F)c(C)c(=O)oc12 [WX109] | –
23.4 | 8.8 | 110 | Cc1c(Nc2ccc(I)cc2F)c2c(=O)n(C3CC3)c(C)c(-c3cccc(NCCO)c3)c2oc1=O [WX093] | –
13 | 5.26 | 105 | COC(OC)C(=O)Nc1cccc(-c2c(C)n(C3CC3)c(=O)c3c(Nc4ccc(I)cc4F)c(C)c(=O)oc23)c1 [WX081] | –
3.93 | 1.75 | 97.4 | CCS(=O)(=O)Nc1cccc(-c2c(C)n(C3CC3)c(=O)c3c(Nc4ccc(I)cc4F)c(C)c(=O)oc23)c1 [WX082] | –
207 | 94.5 | 93.6 | CCc1c(Nc2ccc(I)cc2F)c2c(=O)n(C3CC3)c(C)c(-c3cccc(CS(C)(=O)=O)c3C)c2oc1=O [WX110] | –
115 | 66.9 | 86.4 | COCCn1c(C)cc2oc(=O)c(C)c(Nc3ccc(I)cc3F)c2c1=O [WX060] | –
334 | 484 | 81.5 | CNCCn1c(C)c(-c2cccc(NC(C)=O)c2)c2oc(=O)c(C)c(Nc3ccc(I)cc3F)c2c1=O [WX054] | –
2820 | 1550 | 54.1 | CC(=O)Nc1cccc(-c2c(C)n(CCN(C)C(C)=O)c(=O)c3c(Nc4ccc(I)cc4F)c(C)c(=O)oc23)c1 [WX056] | –
12.4 | 4.72 | 49.1 | CNC(=O)Nc1cccc(-c2c(C)n(C3CC3)c(=O)c3c(Nc4ccc(I)cc4F)c(C)c(=O)oc23)c1 [WX099] | –
20.3 | 6.58 | 48.9 | Cc1c(Nc2ccc(I)cc2F)c2c(=O)n(C3CC3)c(C)c(-c3cccc(NC(N)=O)c3)c2oc1=O [WX103] | –
1.77 | 0.79 | 48.6 | Cc1c(Nc2ccc(I)cc2F)c2c(=O)n(C3CC3)c(C)c(-c3cccc(NS(=O)(=O)C(C)(C)C)c3)c2oc1=O [WX095] | –
18.9 | 5.47 | 45.2 | COC(=O)Nc1cccc(-c2c(C)n(C3CC3)c(=O)c3c(Nc4ccc(I)cc4F)c(C)c(=O)oc23)c1 [WX094] | –
69 | 33.6 | 44.3 | CC(=O)Nc1ccc(C)c(-c2c(C)n(C3CC3)c(=O)c3c(Nc4ccc(I)cc4F)c(C)c(=O)oc23)c1 [WX036] | –
15.7 | 5.09 | 40.3 | CC(=O)Nc1cncc(-c2c(C)n(C3CC3)c(=O)c3c(Nc4ccc(I)cc4F)c(C)c(=O)oc23)n1 [WX115] | –
9.77 | 3.66 | 35 | Cc1c(Nc2ccc(I)cc2F)c2c(=O)n(C3CC3)c(C)c(-c3cccc(C[S+](C)[O-])c3)c2oc1=O (stereo not drawn) [WX068] | –
105 | 17.2 | 29.5 | CNCc1cccc(-c2c(C)n(C3CC3)c(=O)c3c(Nc4ccc(I)cc4F)c(C)c(=O)oc23)c1 [WX097] | –
– | – | 18.2 | Cc1[nH]c(=O)c2c(Nc3ccc(I)cc3F)c(C)c(=O)oc2c1-c1cccc(NS(C)(=O)=O)c1C (single isomer, unassigned) [WX119] | IC50 (HT29 cells; [5]): 19.3 nM; IC50 (A375 cells; [6]): 5.85 nM
12.6 | 1.76 | 17.4 | Cc1c(Nc2ccc(I)cc2F)c2c(=O)n(C3CC3)c(C)c(Cc3cccc(N)c3)c2oc1=O [WX101] | –
